{"source": "paper PMC4389257", "about": "“Structural basis for full-spectrum inhibition of translational functions on a tRNA synthetase” (Nature Communications, 2015)", "target": "T1, human threonyl-tRNA synthetase (ThrRS) (Homo sapiens, UniProt P26639)", "T1 construct": "gene TARS1", "T1 sequence (P26639 322-723)": "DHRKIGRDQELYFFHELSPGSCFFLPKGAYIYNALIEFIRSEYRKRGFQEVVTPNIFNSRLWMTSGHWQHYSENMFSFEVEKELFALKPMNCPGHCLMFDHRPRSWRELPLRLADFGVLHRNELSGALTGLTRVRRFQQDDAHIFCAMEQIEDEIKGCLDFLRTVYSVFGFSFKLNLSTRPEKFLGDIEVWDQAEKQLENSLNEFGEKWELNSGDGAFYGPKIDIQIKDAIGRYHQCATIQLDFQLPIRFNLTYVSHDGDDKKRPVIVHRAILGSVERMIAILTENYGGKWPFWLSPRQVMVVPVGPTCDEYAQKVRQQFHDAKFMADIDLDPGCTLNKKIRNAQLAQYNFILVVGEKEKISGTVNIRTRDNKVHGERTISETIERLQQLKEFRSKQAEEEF", "assay": "X-ray co-crystal structure ([…] Å); aminoacylation assay Ki", "type": "biochemical", "note": "pKi: −log10 of the molar value."}
{"compound": "C[C@@H]1C[C@H](C)C[C@H](C)[C@@H](O)CC(=O)O[C@H]([C@@H]2CCC[C@H]2C(=O)O)C/C=C/C=C(/C#N)[C@H](O)[C@@H](C)C1", "note": "[BN, Borrelidin]", "values": [{"measurement": "pKi", "result": "~8.15"}]}
